Laboratory results from US20220119354A1, “DIAMINO-SUBSTITUTED PYRIDINES AND PYRIMIDINES AS HERBICIDES” (FMC Corporation, priority 2019, published 2022).

Columns and labels:
Assay type in all cases: in vivo
[1] = test system: blackgrass (Alopecurus myosuroides); assay: Test A postemergence, blackgrass; conditions: 0 to 100 scale, 0 no effect, 100 complete control
Procedure, shortened: (§1)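 Plants grown in a loam soil and sand blend were treated either preemergence by directed soil spray or postemergence when 2 to 10 cm tall (one- to two-leaf stage). Formulation: non-phytotoxic solvent mixture with surfactant. Greenhouse hold ~10 d, then visual injury assessment on a 0–100 scale.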

[2] = test system: ryegrass, Italian (Lolium multiflorum); assay: Test A postemergence, Italian ryegrass; conditions: 0 to 100 scale, 0 no effect, 100 complete control
Procedure, shortened: as §1

[3] = test system: barnyardgrass (Echinochloa crus-galli); assay: Test B flooded paddy test, barnyardgrass; conditions: Flood, 250 g ai/ha, applied to paddy water, 2-leaf stage, visual evaluation after 13 to 15 d
Procedure, shortened: (§2)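 Growth to two leaves preceded treatment. Flooding to 3 cm above soil surface, then water-applied compound; depth kept constant. Scored visually relative to controls after 13–15 d greenhouse; 100 means full control.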

[4] = test system: galium (catchweed bedstraw, Galium aparine); assay: Test A postemergence, galium; conditions: 0 to 100 scale, 0 no effect, 100 complete control
Procedure, shortened: as §1

[5] = test system: sedge, umbrella (small-flower umbrella sedge, Cyperus difformis); assay: Test B flooded paddy test, umbrella sedge; conditions: Flood, 250 g ai/ha, applied to paddy water, 2-leaf stage, visual evaluation after 13 to 15 d
Procedure, shortened: as §2

[6] = test system: pigweed (Amaranthus retroflexus); assay: Test A preemergence, pigweed; conditions: 0 to 100 scale, 0 is no effect, 100 is complete control
Procedure, shortened: as §1

[7] = test system: ryegrass, Italian (Lolium multiflorum); assay: Test A preemergence, Italian ryegrass; conditions: 0 to 100 scale, 0 is no effect, 100 is complete control
Procedure, shortened: as §1

[8] = test system: ragweed (common ragweed, Ambrosia elatior); assay: Test A preemergence, ragweed; conditions: 0 to 100 scale, 0 is no effect, 100 is complete control
Procedure, shortened: as §1

[9] = test system: wheat (Triticum aestivum); assay: Test A postemergence, wheat; conditions: 0 to 100 scale, 0 no effect, 100 complete control
Procedure, shortened: as §1

[10] = test system: pigweed (Amaranthus retroflexus); assay: Test A postemergence, pigweed; conditions: 0 to 100 scale, 0 no effect, 100 complete control
Procedure, shortened: as §1

corn (Zea mays) = assay: Test A postemergence, corn; conditions: 0 to 100 scale, 0 no effect, 100 complete control
Procedure, shortened: as §1

[11] = test system: barnyardgrass (Echinochloa crus-galli); assay: Test A postemergence, barnyardgrass; conditions: 0 to 100 scale, 0 no effect, 100 complete control
Procedure, shortened: as §1

kochia (Kochia scoparia) [12] = assay: Test A postemergence, kochia; conditions: 0 to 100 scale, 0 no effect, 100 complete control
Procedure, shortened: as §1

[13] = test system: ducksalad (Heteranthera limosa); assay: Test B flooded paddy test, ducksalad; conditions: Flood, 250 g ai/ha, applied to paddy water, 2-leaf stage, visual evaluation after 13 to 15 d
Procedure, shortened: as §2

[14] = test system: ragweed (common ragweed, Ambrosia elatior); assay: Test A postemergence, ragweed; conditions: 0 to 100 scale, 0 no effect, 100 complete control
Procedure, shortened: as §1

kochia (Kochia scoparia) [15] = assay: Test A preemergence, kochia; conditions: 0 to 100 scale, 0 is no effect, 100 is complete control
Procedure, shortened: as §1

[16] = test system: foxtail, giant (Setaria faberii); assay: Test A preemergence, giant foxtail; conditions: 0 to 100 scale, 0 is no effect, 100 is complete control
Procedure, shortened: as §1

[17] = test system: foxtail, giant (Setaria faberii); assay: Test A postemergence, giant foxtail; conditions: 0 to 100 scale, 0 no effect, 100 complete control
Procedure, shortened: as §1

rice (Oryza sativa) = assay: Test B flooded paddy test, rice; conditions: Flood, 250 g ai/ha, applied to paddy water, 2-leaf stage, visual evaluation after 13 to 15 d
Procedure, shortened: as §2

[18] = test system: barnyardgrass (Echinochloa crus-galli); assay: Test A preemergence, barnyardgrass; conditions: 0 to 100 scale, 0 is no effect, 100 is complete control
Procedure, shortened: as §1

SMILES | Plant response rating, Blackgrass ([1]; 125 g ai/ha) | Plant response rating, Blackgrass ([1]; 500 g ai/ha) | Plant response rating, Ryegrass, Italian ([2]; 125 g ai/ha) | Plant response rating, Ryegrass, Italian ([2]; 500 g ai/ha) | Plant response rating, Barnyardgrass (0 to 100 scale, 0 is no effect, 100 is complete control) [3] | Plant response rating, Galium ([4]; 125 g ai/ha) | Plant response rating, Galium ([4]; 500 g ai/ha) | Plant response rating, Sedge, Umbrella (0 to 100 scale, 0 is no effect, 100 is complete control) [5] | Pigweed plant response rating ([6]; 125 g ai/ha) | Pigweed plant response rating ([6]; 500 g ai/ha) | Ryegrass, Italian plant response rating ([7]; 125 g ai/ha) | Ryegrass, Italian plant response rating ([7]; 500 g ai/ha) | Ragweed plant response rating ([8]; 125 g ai/ha) | Ragweed plant response rating ([8]; 500 g ai/ha) | Plant response rating, Wheat ([9]; 125 g ai/ha) | Plant response rating, Wheat ([9]; 500 g ai/ha) | Plant response rating, Pigweed ([10]; 125 g ai/ha) | Plant response rating, Pigweed ([10]; 500 g ai/ha) | Plant response rating, Corn (corn (Zea mays); 125 g ai/ha) | Plant response rating, Corn (corn (Zea mays); 500 g ai/ha) | other results
C[C@@H](Nc1nc(N)c(C(F)(F)F)c(C(F)(F)F)n1)c1cc2ccccc2s1 [Compound 59] | 0 | 0 | 0 | 0 | 0 | 20 | 20 | 0 | 30 | 80 | 0 | 0 | 0 | 30 | 0 | 0 | 60 | 80 | 0 | 0 | Plant response rating, Barnyardgrass ([11]; 125 g ai/ha): 0; Plant response rating, Barnyardgrass ([11]; 500 g ai/ha): 0; Plant response rating, Kochia (kochia (Kochia scoparia) [12]; 125 g ai/ha): 50; Plant response rating, Kochia (kochia (Kochia scoparia) [12]; 500 g ai/ha): 70; Plant response rating, Ducksalad (0 to 100 scale, 0 is no effect, 100 is complete control) [13]: 0; Plant response rating, Ragweed ([14]; 125 g ai/ha): 0; Plant response rating, Ragweed ([14]; 500 g ai/ha): 0; Kochia plant response rating (kochia (Kochia scoparia) [15]; 125 g ai/ha): 70; Kochia plant response rating (kochia (Kochia scoparia) [15]; 500 g ai/ha): 80; Foxtail, Giant plant response rating ([16]; 125 g ai/ha): 0; Foxtail, Giant plant response rating ([16]; 500 g ai/ha): 30; Plant response rating, Foxtail, Giant ([17]; 125 g ai/ha): 0; Plant response rating, Foxtail, Giant ([17]; 500 g ai/ha): 0; Plant response rating, Rice (0 to 100 scale, 0 is no effect, 100 is complete control) (rice (Oryza sativa)): 0; Barnyardgrass plant response rating ([18]; 125 g ai/ha): 0; Barnyardgrass plant response rating ([18]; 500 g ai/ha): 0
C[C@H](Nc1nc(N)c(C(F)(F)F)c(C(F)(F)F)n1)c1cc2ccccc2s1 [Compound 60] | 0 | 20 | 0 | 0 | 0 | 30 | 40 | 0 | 0 | 0 | 0 | 20 | 0 | 0 | 0 | 0 | 50 | 90 | 0 | 0 | Plant response rating, Barnyardgrass ([11]; 125 g ai/ha): 0; Plant response rating, Barnyardgrass ([11]; 500 g ai/ha): 50; Plant response rating, Kochia (kochia (Kochia scoparia) [12]; 125 g ai/ha): 30; Plant response rating, Kochia (kochia (Kochia scoparia) [12]; 500 g ai/ha): 100; Plant response rating, Ducksalad (0 to 100 scale, 0 is no effect, 100 is complete control) [13]: 0; Plant response rating, Ragweed ([14]; 125 g ai/ha): 20; Plant response rating, Ragweed ([14]; 500 g ai/ha): 60; Kochia plant response rating (kochia (Kochia scoparia) [15]; 125 g ai/ha): 0; Kochia plant response rating (kochia (Kochia scoparia) [15]; 500 g ai/ha): 0; Foxtail, Giant plant response rating ([16]; 125 g ai/ha): 0; Foxtail, Giant plant response rating ([16]; 500 g ai/ha): 0; Plant response rating, Foxtail, Giant ([17]; 125 g ai/ha): 20; Plant response rating, Foxtail, Giant ([17]; 500 g ai/ha): 50; Plant response rating, Rice (0 to 100 scale, 0 is no effect, 100 is complete control) (rice (Oryza sativa)): 0; Barnyardgrass plant response rating ([18]; 125 g ai/ha): 0; Barnyardgrass plant response rating ([18]; 500 g ai/ha): 50
CC[C@@H](Nc1ncc(C(F)(F)F)c(N)n1)c1cc2ccc(F)cc2o1 [Compound 63] | 0 | 20 | 0 | 0 | 45 | 50 | 90 | 80 | 90 | 100 | 40 | 90 | 50 | 100 | 0 | 0 | 100 | 100 | 0 | 10 | Plant response rating, Barnyardgrass ([11]; 125 g ai/ha): 30; Plant response rating, Barnyardgrass ([11]; 500 g ai/ha): 60; Plant response rating, Kochia (kochia (Kochia scoparia) [12]; 125 g ai/ha): 80; Plant response rating, Kochia (kochia (Kochia scoparia) [12]; 500 g ai/ha): 90; Plant response rating, Ducksalad (0 to 100 scale, 0 is no effect, 100 is complete control) [13]: 75; Plant response rating, Ragweed ([14]; 125 g ai/ha): 30; Plant response rating, Ragweed ([14]; 500 g ai/ha): 60; Kochia plant response rating (kochia (Kochia scoparia) [15]; 125 g ai/ha): 80; Kochia plant response rating (kochia (Kochia scoparia) [15]; 500 g ai/ha): 100; Foxtail, Giant plant response rating ([16]; 125 g ai/ha): 60; Foxtail, Giant plant response rating ([16]; 500 g ai/ha): 100; Plant response rating, Foxtail, Giant ([17]; 125 g ai/ha): 20; Plant response rating, Foxtail, Giant ([17]; 500 g ai/ha): 90; Plant response rating, Rice (0 to 100 scale, 0 is no effect, 100 is complete control) (rice (Oryza sativa)): 0; Barnyardgrass plant response rating ([18]; 125 g ai/ha): 70; Barnyardgrass plant response rating ([18]; 500 g ai/ha): 100
